One data set is described as follows: Solubility of probucol. It counts as physicochemical. To be noted: formulation A; 10% probucol; ethanol not required to prevent precipitation. The protocol:
The ethanol was added as a cosolvent to prevent precipitation of probucol from the peanut oil in formulations B & C.

For data set [1] the following is noted: cited from earlier work.
For the next data set, the system named is HIV. To be noted: cited from earlier work.

Like-named read-outs stand apart in the source and are kept apart here.

In the case of `CC(C)(Sc1cc(C(C)(C)C)c(O)c(C(C)(C)C)c1)Sc1cc(C(C)(C)C)c(O)c(C(C)(C)C)c1` [Probucol, bis(3,5-di-tert-butyl-4-hydroxyphenyl) acetone mercaptole], the “solubility in medium chain triglycerides” value in the data set “Solubility of probucol” is reported as “sufficiently soluble in medium chain triglycerides”. The water solubility entry is recorded as “water-insoluble” in data set [1] and “substantially water insoluble” in data set [1] (listed as probucol).

Take `Nc1ccn([C@H]2CC[C@@H](CO)O2)c(=O)n1` [ddC]: the death rate in the data set on HIV (after 12 months, 20 patients, average CD4+ count on entry 154) is 25%.

Regarding `Cc1cn([C@H]2C[C@H](N=[N+]=[N-])[C@@H](CO)O2)c(=O)[nH]c1=O` [AZT], in the data set on HIV (after one year, 159 patients, estimated average CD4+ count 189), the death rate was 15%.

The values above are taken from patent publication US5494936A, “Delivery formulation for probucol” (priority 1994, dated 1996).
